Experimental data taken from US4379779A, “Equilin hapten and assay method” (American Home Products Corporation, priority 1980, dated 1983).

How the values were obtained:
[1] = system: Equilin Antibody (anti-equilin serum); experiment: Cross-reactivity of steroids with anti-equilin serum (radioimmunoassay); assay type: binding, rabbit; conditions: for Equilin Antibody (Percent Cross-Reactivity): Table 1, anti-equilin serum, [2,4-3H]-equilin tracer
Experimental: A standard was prepared from a stock solution of unlabeled equilin in absolute ethanol (100 ng/ml). A working standard solution containing 1 ng/ml of equilin was prepared in sodium phosphate buffer (0.1 M, pH 7, 0.9% NaCl). The labeled [2,4-^3 H]-equilin solution was prepared in the assay buffer at a concentration of 100 pg/ml. The antiserum was prepared in BSA-assay buffer (1 g BSA/1000 ml sodium phosphate buffer) at a concentration of one-fifth of the final working dilutions.
The standard curve was established by preparing duplicate 3 ml centrifuge tubes containing 0, 50, 100, 250, 500, 1000, and 2000 pg of equilin in a total volume of 0.5 ml assay buffer. The sample tubes were prepared in duplicate with hydrolyzed plasma extract (0.1 ml) and assay buffer (0.4 ml) in a total volume of 0.5 ml. To all standard and sample tubes antibody (0.25 ml) and labeled steroid (0.5 ml) were added. These were mixed and allowed to incubate at 4° C. for 18 hr. After addition of 0.2 ml gamma globulin dextrancoated charcoal (4 g charcoal, 0.4 g dextran, 0.8 g human gamma globulin, 200 ml deionized water), each tube was again mixed and placed in a cold room (4° C.) for 20 min. After centrifugation at 2,500 rev./min for 6 min, 0.5 ml of each supernatant was aliquoted into a counting vial. Then 15 ml of a scintillation medium (4 g of 2,5-diphenyloxazole (PPO), 50 mg of 1,4-di-2-(5-phenyloxazoyl)-benzene(dimethyl-POPOP), 100 ml of an aqueous solubilizer Biosolv BBS-3 (Biosolv is a trademark of Bechman Istruments, Irvine, Calif., U.S.A.) and 1000 ml toluene) was added to each vial. The samples were counted to a relative standard error of less than 2% in a Packard model 3320 liquid scintillation counter, Packard Instrument Co., Downers Grove, Ill., U.S.A., see C. Matthijssen and J. W. Goldzieher, Analyt. Biochem., 10, 401 (1965).
All rabbits immunized with the immunogen produced antisera with high titers and specificity in 6 months' time. The titer was determined from the ability of antibody to bind a constant amount (50 pg) of the labeled steroid. As a primary step, the cross-reactivity [G. E. Abraham, J. Clin. Endocrinol. Metabol., 29, 866 (1969)] of estrone with anti-equilin serum obtained from each rabbit was evaluated. […] These latter two compounds represent about 2% each of the typical composition of estrogens present in conjugated estrogens and will not interfere, as shown, in the validation of the assay.

[2] = Oxidation of equilin to equilenin during formic acid hydrolysis of the conjugate fraction (HPLC); assay type: physicochemical; conditions: 120 min
Experimental: Plasma (0.2 ml) and distilled water (0.7 ml) were added to a 16×125 nm tube and mixed. [6,7-^3 H]-Estrone-3-sulfate (0.1 ml, 2,000 cpm) and [2,4-^3 H]-equilin (0.1 ml, 2,000 cpm) were then added to correct for recovery through the assay procedure, and the sample again mixed well and allowed to stand at room temperature for 30 min. Diethyl ether (2 ml) was added for extraction of the free compound. The extraction was repeated three times and the combined extracts washed with distilled water (1 ml) and the solvent removed by evaporation. The aqueous phase containing the conjugates was re-extracted with 2 ml of ethyl acetate-ethanol (4:1, v/v). The extraction was repeated two more times and the combined extracts were dried in a centrifuge tube (12 ml) under a stream of nitrogen. The conjugate fraction was hydrolyzed with formic acid. A solution of ethyl acetate (1 ml) containing formic acid (20% ) and ascorbic acid (1 mg) was added to the tube containing the conjugate fraction. The tube was tightly closed, vortexed, and sonified for 10 min before being placed in a 37° C. water bath for 2 hr. The hydrolyzed sample was taken to dryness, sodium phosphate buffer (1 ml) was added. The solution was vortexed and allowed to stand at 20° C. for 10 min. The hydrolyzed free compound was extracted with diethyl ether (2 ml) three times and taken to dryness. […]

SMILES	Equilin Antibody (Percent Cross-Reactivity) [1]	also measured
C[C@]12CCC(=O)C=C1CC[C@@H]1[C@@H]2CC[C@]2(C)C(=O)CC[C@@H]12 [4-Androstene-3,17-dione]	< 0.10%	–
C[C@]12CC[C@@H]3c4ccc(O)cc4C=C[C@H]3[C@@H]1CCC2=O [6-Dehydroestrone]	< 0.10%	–
C[C@]12CCC3=C(CCc4cc(O)ccc43)[C@@H]1CCC2=O [8-Dehydroestrone]	0.94%	–
C[C@]12CCc3c(ccc4cc(O)ccc34)[C@@H]1CC[C@H]2O [17α-Dihydroequilenin]	< 0.10%	–
C[C@]12CC[C@H]3C(=CCc4cc(O)ccc43)[C@@H]1CC[C@H]2O [17α-Dihydroequilin]	< 0.10%	–
C[C@]12CC[C@@H]3c4ccc(O)cc4CC[C@H]3[C@@H]1CC[C@H]2O [17α-Estradiol]	< 0.10%	–
C[C@]12CCc3c(ccc4cc(O)ccc34)[C@@H]1CC[C@@H]2O [17β-Dihydroequilenin]	< 0.10%	–
C[C@]12CC[C@H]3C(=CCc4cc(O)ccc43)[C@@H]1CC[C@@H]2O [17β-Dihydroequilin]	2.86%	cross-reaction with anti-equilin serum [1]: 2.9%
C[C@]12CC[C@@H]3c4ccc(O)cc4CC[C@H]3[C@@H]1CC[C@@H]2O [17β-Estradiol]	< 0.10%	–
C[C@]12CC[C@@H](O)C[C@@H]1CC[C@@H]1[C@@H]2CC[C@]2(C)C(=O)CC[C@@H]12 [Androsterone]	< 0.10%	–
C[C@]12CCC(=O)C=C1CC[C@@H]1[C@@H]2[C@@H](O)C[C@@]2(C)[C@H]1CC[C@]2(O)C(=O)CO [Cortisol]	< 0.10%	–
C[C@]12CC[C@H](O)CC1=CC[C@@H]1[C@@H]2CC[C@]2(C)C(=O)CC[C@@H]12 [Dehydroepiandrosterone]	< 0.10%	–
C[C@]12CCc3c(ccc4cc(O)ccc34)[C@@H]1CCC2=O [Equilenin]	3.45%	cross-reaction with anti-equilin serum [1]: 3.5%
C[C@]12CC[C@H]3C(=CCc4cc(OS(=O)(=O)O)ccc43)[C@@H]1CCC2=O [Equilin 3-Sulfate]	1.36%	–
C[C@]12CC[C@H]3C(=CCc4cc(O)ccc43)[C@@H]1CCC2=O [Equilin, 3-hydroxy-1,3,5(10),7-estratetraen-17-one]	100.0%	equilin oxidized to equilenin during hydrolysis ([2]; formic acid hydrolysis with 0.1% (w/v) ascorbic acid added): 2-3%; equilin oxidized to equilenin during hydrolysis ([2]; hydrolysis of conjugate fraction with formic acid, no antioxidant): 13-16%
C[C@]12CC[C@@H]3c4ccc(O)cc4C[C@@H](O)[C@]3(O)[C@@H]1CCC2=O [Equilin-7α,8α-glycol]	< 0.10%	–
C[C@]12CC[C@@H]3c4ccc(OS(=O)(=O)O)cc4CC[C@H]3[C@@H]1CCC2=O [Estrone 3-sulfate]	< 0.10%	–
C[C@]12CC[C@@H]3c4ccc(O)cc4CC[C@H]3[C@@H]1CCC2=O [Estrone]	0.78%	cross-reaction with anti-equilin serum [1]: negligible cross-reaction
CC(=O)[C@H]1CC[C@H]2[C@@H]3CCC4=CC(=O)CC[C@]4(C)[C@H]3CC[C@]12C [Progesterone]	< 0.10%	–
C[C@]12CC[C@H]3[C@@H](CCC4=CC(=O)CC[C@@]43C)[C@@H]1CC[C@@H]2O [Testosterone]	< 0.10%	–
